System: maltase
Test: GOD-PAP glucose release assay, Lineweaver-Burk plot
Assay type: biochemical, Bacillus licheniformis
Conditions: free (soluble) enzyme, partially purified; maltose 2.5-50 mM; pH and temperature of the kinetics not stated

OC[C@H]1O[C@H](O[C@H]2[C@H](O)[C@@H](O)C(O)O[C@@H]2CO)[C@H](O)[C@@H](O)[C@@H]1O (stereo partly shown) [maltose]
Km: 1.71 mM ml^−1

— PMC5669356, “Continuous degradation of maltose by enzyme entrapment technology using calcium alginate beads as a matrix” (Biochemistry and Biophysics Reports, 2015)
